Series [1] is described as follows: in vitro. Conditions: human.
For series [2], the system named is human red blood cells (hRBC). Put plainly: Hemolysis. The format is cell-based. Here is the method: The peptides were tested for their hemolytic activity against human red blood cells (hRBC). Fresh hRBC were washed three times with phosphate buffered saline (PBS) by centrifugation for 10 min at 2000×g. Peptides at a concentration of 100 μM were incubated with 20% v/v hRBC for 1 hour at 37° C. The final erythrocyte concentration was approximately 0.9×10^9 cells per ml. A value of 0% resp. 100% cell lysis was determined by incubation of the hRBC in the presence of PBS alone and respectively 0.1% Triton X-100 in H2O. The samples were centrifuged and the supernatant was 20-fold diluted in PBS buffer and the optical density (OD) of the sample at […] was measured. The 100% lyses value (OD540H2O) gave an OD540 of approximately 1.3-1.8. Percent hemolysis was calculated as follows: (OD540peptide/OD540H2O)×100%.

Series [3] deals with CXCR4 (Homo sapiens, UniProt P61073). Put plainly: Ca2+-assay method 2 (Flexstation, SDF-1 induced calcium mobilization). Conditions: method 2 (Ex. 54-160), mouse pre-B cell line 300-19 with human CXCR4, 10 nM SDF-1; read-out: IC50 (nM) Ca^2+ assay. Further details: expressed in transfected cells; host or cells: mouse pre-B cell line 300-19. Format: cell-based. Here is the method:
2.2. Ca^2+-Assay: CXCR4-Antagonizing Activity of the Peptides.
The cells were batch loaded with the Calcium 3 Assay kit (Molecular Devices) in assay buffer (Hanks Balanced salt solution, HBSS, 20 mM HEPES, pH 7.4, 0.1% BSA) for 1 h at room temperature and then 200,000 labeled cells were dispensed into black 96 well assays plates (Costar No. 3603). A 20-fold concentrated solution of peptide in assay buffer was added to the cells and the whole plate was centrifuged to settle the cells to the bottom of the wells. Calcium mobilization induced by 10 nM stromal-derived factor-1 (SDF-1) was measured in the Flexstation 384 (excitation, 485 nM; emission, 525 nM) for 90 seconds. A maximal change in fluorescence response above baseline was used to calculate antagonist activity. The data for dose response curves (antagonist concentration versus % maximum response) were fitted to a four parameter logistic equation using SoftmaxPro 4.6 (Molecular Devices), from which IC50% values were calculated.

Each structure is given as a SMILES string. Bridge positions count the residues as written; N and C are the ends. Square brackets hold non-standard residues; d marks the D form. Peptide text beside a SMILES is read from it. Phe(4-F) = N[C@@H](Cc1ccc(F)cc1)C(=O)O; 2Nal = N[C@@H](Cc1ccc2ccccc2c1)C(=O)O; Cit = NC(=O)NCCC[C@H](N)C(=O)O
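Wherever GI50 is given: MTT reduction read as absorbance at 595 nm, blank-corrected and expressed as percent growth relative to the time-zero cell reading, triplicate wells per concentration.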

CXCR4, sequence (P61073 whole entry): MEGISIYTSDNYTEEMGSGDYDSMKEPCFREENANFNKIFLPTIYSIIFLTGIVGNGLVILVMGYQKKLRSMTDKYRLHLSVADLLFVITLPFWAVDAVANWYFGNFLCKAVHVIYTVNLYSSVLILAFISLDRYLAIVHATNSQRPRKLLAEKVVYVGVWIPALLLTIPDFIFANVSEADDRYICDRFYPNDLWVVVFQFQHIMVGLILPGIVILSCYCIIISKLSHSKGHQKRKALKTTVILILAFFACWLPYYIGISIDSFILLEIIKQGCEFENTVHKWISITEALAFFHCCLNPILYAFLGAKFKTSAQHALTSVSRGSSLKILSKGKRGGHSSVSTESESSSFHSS

In the case of `N=C(N)NCCC[C@@H]1NC(=O)[C@@H]2CSSC[C@H](NC(=O)[C@H](Cc3ccc4ccccc4c3)NC(=O)[C@H](CCCNC(=N)N)NC(=O)[C@H](CCCNC(=N)N)NC(=O)[C@H]3CCCN3C(=O)CNC1=O)C(=O)N[C@@H](Cc1ccc(O)cc1)C(=O)N[C@@H](CCC(N)=O)C(=O)N[C@@H](CCCCN)C(=O)N1CCC[C@@H]1C(=O)N1CCC[C@H]1C(=O)N[C@@H](Cc1c[nH]c3ccccc13)C(=O)N[C@@H](CCCNC(=N)N)C(=O)N[C@@H](CCCNC(N)=O)C(=O)N2` [Ex. 66] (cyclo(WR[Cit]CRG[dP]RR[2Nal]CYQK[dP]P); disulfide 4-11), in series [1], the GI50 at 48 h came out at 46000 nM. Also, the Hemolysis at 100 μM in series [2] worked out at 0%. For the same molecule, the IC50 in series [3] came out at 3.8 nM.
As to `N=C(N)NCCC[C@@H]1NC(=O)[C@@H]2CSSC[C@H](NC(=O)[C@H](Cc3c[nH]c4ccccc34)NC(=O)[C@H](CCCNC(=N)N)NC(=O)[C@H](CCCNC(=N)N)NC(=O)[C@H]3CCCN3C(=O)CNC1=O)C(=O)N[C@@H](Cc1ccc(O)cc1)C(=O)N[C@@H](CCCNC(N)=O)C(=O)N[C@@H](CCCCN)C(=O)N1CCC[C@@H]1C(=O)N1CCC[C@H]1C(=O)N[C@@H](Cc1ccc(O)cc1)C(=O)N[C@@H](CCCNC(=N)N)C(=O)N[C@@H](CCCNC(N)=O)C(=O)N2` [Ex. 123] (cyclo(YR[Cit]CRG[dP]RRWCY[Cit]K[dP]P); disulfide 4-11), the GI50 at 48 h in series [1] was found to be 80000 nM. This molecule registered a Hemolysis at 100 μM in series [2] of 0%. For the same molecule, the IC50 in series [3] was determined as 10 nM.
As to `CC[C@H](C)[C@@H]1NC(=O)[C@H](CCCNC(=N)N)NC(=O)[C@H](Cc2ccc(O)cc2)NC(=O)[C@@H]2CCCN2C(=O)[C@H]2CCCN2C(=O)[C@H](CCCCN)NC(=O)[C@H](CCC(N)=O)NC(=O)[C@H](Cc2ccc(O)cc2)NC(=O)[C@@H]2CSSC[C@H](NC1=O)C(=O)N[C@@H](CCCNC(=N)N)C(=O)NCC(=O)N1CCC[C@@H]1C(=O)N[C@@H](CCCNC(=N)N)C(=O)N[C@@H](CCCNC(=N)N)C(=O)N[C@@H](Cc1ccc3ccccc3c1)C(=O)N2` [Ex. 71] (cyclo(YRICRG[dP]RR[2Nal]CYQK[dP]P); disulfide 4-11), the concentration for 50% growth inhibition (GI50) at 48 h in series [1] came out at 34000 nM. The Hemolysis at 100 μM in series [2] came out at 0.1%. Moreover, the IC50 in series [3] was 2.7 nM.
The like results for `C[C@@H](O)[C@@H]1NC(=O)[C@H](CCCNC(=N)N)NC(=O)[C@H](Cc2ccc(O)cc2)NC(=O)[C@@H]2CCCN2C(=O)[C@H]2CCCN2C(=O)[C@H](CCCCN)NC(=O)[C@H](CCC(N)=O)NC(=O)[C@H](Cc2ccc(O)cc2)NC(=O)[C@@H]2CSSC[C@H](NC1=O)C(=O)N[C@@H](CCCNC(=N)N)C(=O)NCC(=O)N1CCC[C@@H]1C(=O)N[C@@H](CCCNC(=N)N)C(=O)N[C@@H](CCCNC(=N)N)C(=O)N[C@@H](Cc1ccc(O)cc1)C(=O)N2` [Ex. 145] (cyclo(YRTCRG[dP]RRYCYQK[dP]P); disulfide 4-11) were, in that order, 97000 nM, 0% and 0.38 nM.
`N=C(N)NCCC[C@@H]1NC(=O)[C@@H]2CSSC[C@H](NC(=O)[C@H](Cc3c[nH]c4ccccc34)NC(=O)[C@H](CCCNC(=N)N)NC(=O)[C@H](CCCNC(=N)N)NC(=O)[C@H]3CCCN3C(=O)CNC1=O)C(=O)N[C@@H](Cc1ccc(O)cc1)C(=O)N[C@@H](CCC(N)=O)C(=O)N[C@@H](CCCCN)C(=O)N1CCC[C@@H]1C(=O)N1CCC[C@H]1C(=O)N[C@@H](Cc1ccc(O)cc1)C(=O)N[C@@H](CCCNC(=N)N)C(=O)N[C@@H](CCCNC(N)=O)C(=O)N2` [Ex. 108] (cyclo(YR[Cit]CRG[dP]RRWCYQK[dP]P); disulfide 4-11) showed a GI50 at 48 h in series [1] of 70000 nM. The same molecule showed a Hemolysis at 100 μM in series [2] of 0%. In addition, the IC50 in series [3] turned out to be 4.6 nM.
In series [1], `N=C(N)NCCC[C@@H]1NC(=O)[C@@H]2CSSC[C@H](NC(=O)[C@H](Cc3c[nH]c4ccccc34)NC(=O)[C@H](CCCNC(=N)N)NC(=O)[C@H](CCCNC(=N)N)NC(=O)[C@H]3CCCN3C(=O)CNC1=O)C(=O)N[C@@H](Cc1ccc(O)cc1)C(=O)N[C@@H](CCCNC(N)=O)C(=O)N[C@@H](CCC(N)=O)C(=O)N1CCC[C@@H]1C(=O)N1CCC[C@H]1C(=O)N[C@@H](Cc1ccc(O)cc1)C(=O)N[C@@H](CCCNC(=N)N)C(=O)N[C@@H](CCCNC(N)=O)C(=O)N2` [Ex. 121] (cyclo(YR[Cit]CRG[dP]RRWCY[Cit]Q[dP]P); disulfide 4-11) came in with a 50% growth inhibitory concentration (GI50) at 48 h of 79000 nM. Besides, in series [2], the Hemolysis at 100 μM came to 0%. In series [3], the IC50 turned out to be 6.5 nM.
Molecule `C[C@@H](O)[C@@H]1NC(=O)[C@@H]2CCCN2C(=O)[C@H]2CCCN2C(=O)[C@H](CCCCN)NC(=O)[C@H](CCC(N)=O)NC(=O)[C@H](Cc2ccc(O)cc2)NC(=O)[C@@H]2CSSC[C@H](NC(=O)[C@H](CCCNC(N)=O)NC(=O)[C@H](CCCNC(=N)N)NC1=O)C(=O)N[C@@H](CCCNC(=N)N)C(=O)NCC(=O)N1CCC[C@@H]1C(=O)N[C@@H](CCCNC(=N)N)C(=O)N[C@@H](CCCNC(=N)N)C(=O)N[C@@H](Cc1ccc3ccccc3c1)C(=O)N2` [Ex. 67] (cyclo(TR[Cit]CRG[dP]RR[2Nal]CYQK[dP]P); disulfide 4-11) showed a GI50 at 48 h in series [1] of 49000 nM. In series [2], this molecule gave a Hemolysis at 100 μM of 0.2%. The concentration for half-maximal inhibition (IC50) in series [3] was 2.4 nM.
In turn, `N=C(N)NCCC[C@@H]1NC(=O)[C@@H]2CSSC[C@H](NC(=O)[C@H](Cc3ccc4ccccc4c3)NC(=O)[C@H](CCCNC(=N)N)NC(=O)[C@H](Cc3ccc(F)cc3)NC(=O)[C@H]3CCCN3C(=O)CNC1=O)C(=O)N[C@@H](Cc1ccc(O)cc1)C(=O)N[C@@H](CCC(N)=O)C(=O)N[C@@H](CCCCN)C(=O)N1CCC[C@@H]1C(=O)N1CCC[C@H]1C(=O)N[C@@H](Cc1ccc(O)cc1)C(=O)N[C@@H](CCCNC(=N)N)C(=O)N[C@@H](CCCNC(N)=O)C(=O)N2` [Ex. 76] (cyclo(YR[Cit]CRG[dP][Phe(4-F)]R[2Nal]CYQK[dP]P); disulfide 4-11) yielded a GI50 at 48 h in series [1] above 100000 nM. The Hemolysis at 100 μM in series [2] was 0.1%. Further, the IC50 in series [3] came to 5.6 nM.
`N=C(N)NCCC[C@@H]1NC(=O)[C@@H]2CSSC[C@H](NC(=O)[C@H](Cc3ccc4ccccc4c3)NC(=O)[C@H](CCCNC(=N)N)NC(=O)[C@H](CCCNC(=N)N)NC(=O)[C@H]3CCCN3C(=O)CNC1=O)C(=O)N[C@@H](Cc1ccc(O)cc1)C(=O)N[C@@H](CCC(N)=O)C(=O)N[C@@H](CCCCN)C(=O)N1CCC[C@@H]1C(=O)N1CCC[C@H]1C(=O)N[C@@H](Cc1ccc(O)cc1)C(=O)N[C@@H](CCCNC(=N)N)C(=O)N[C@@H](Cc1ccc(F)cc1)C(=O)N2` [Ex. 99] (cyclo(YR[Phe(4-F)]CRG[dP]RR[2Nal]CYQK[dP]P); disulfide 4-11) came in with a GI50 at 48 h in series [1] of 40000 nM. The Hemolysis at 100 μM in series [2] was determined as 1.1%. Also, in series [3], the half-inhibitory concentration (IC50) is 4.2 nM.
`C[C@@H]1NC(=O)[C@H](Cc2ccc(O)cc2)NC(=O)[C@@H]2CSSC[C@H](NC(=O)[C@H](CCCNC(N)=O)NC(=O)[C@H](CCCNC(=N)N)NC(=O)[C@H](Cc3ccc(O)cc3)NC(=O)[C@@H]3CCCN3C(=O)[C@H]3CCCN3C(=O)[C@H](CCCCN)NC1=O)C(=O)N[C@@H](CCCNC(=N)N)C(=O)NCC(=O)N1CCC[C@@H]1C(=O)N[C@@H](CCCNC(=N)N)C(=O)N[C@@H](CCCNC(=N)N)C(=O)N[C@@H](Cc1ccc3ccccc3c1)C(=O)N2` [Ex. 80] (cyclo(YR[Cit]CRG[dP]RR[2Nal]CYAK[dP]P); disulfide 4-11): the GI50 at 48 h in series [1] was 44000 nM. This molecule also showed a Hemolysis at 100 μM in series [2] of 0.1%. The IC50 in series [3] is 2.9 nM.
